From paper PMC7076388 (Pharmaceutics, 2020)

Assays:
[1] = target: T1, 26S proteasome isolated from AGS cells (Homo sapiens, UniProt P28074); assay: 26S proteasome inhibition; assay type: biochemical
T1 construct: purified 26S proteasome isolated from AGS cells; endogenous in cells; host or cells: AGS cells
T1 sequence (P28074 60-263): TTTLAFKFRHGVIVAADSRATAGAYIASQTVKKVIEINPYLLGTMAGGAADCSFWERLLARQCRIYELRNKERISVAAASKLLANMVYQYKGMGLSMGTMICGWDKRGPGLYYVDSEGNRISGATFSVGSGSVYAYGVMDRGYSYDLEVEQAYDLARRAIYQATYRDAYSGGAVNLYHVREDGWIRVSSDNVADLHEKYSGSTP
Protocol: This assay was carried out in the same way as described for 20S proteasome (vide supra), except using purified 26S proteasome isolated from AGS cells. To extract 26S proteasome from cells, they were centrifuged at 1300 rpm for 3 min at 37 °C and the supernatant was rejected. The pellet was then resuspended in 5 mL of HBSS. After this step, the cells were centrifuged again under the conditions referred to above and the supernatant was rejected. Then, 1 mL of cell lysis buffer was added, before being placed in ice (4 °C) for 30 min. Subsequently, the mixture was centrifuged at 14,000 g during 30 min at 4 °C. The pellet was rejected, and the supernatant was kept in an Eppendorf tube. The quantity of protein isolated was determined by Bradford Assay.
A stock solution of bovine serum albumin (BSA) (1.0 mg/mL) was prepared in H2O. From the stock solution, six concentrations were prepared: 5%, 4%, 3%, 2%, 1% and 0% stock solution in H2O. An aliquot of each sample (40 µL) was added to a solution of the Bradford reagent (200 µL). After 5 min, the absorbance was measured at 595 nm and the calibration curve was plotted (correlation > 0.99). […] After 5 min, the absorbance was measured at 595 nm and the result was compared with the correlation curve in order to calculate the concentration of protein.

[2] = target: 20S proteasome isolated from erythrocytes (Homo sapiens, UniProt P28074); assay: 20S proteasome inhibition (chymotrypsin-like activity); assay type: biochemical; set-up: purified 20S proteasome isolated from erythrocytes (Enzo Life Sciences); purchased Enzo Life Sciences; host or cells: erythrocytes
Protocol: Proteasome activity was measured by adapting a method described by Silva et al.. The substrate used to study chymotrypsin-like enzyme activity was Suc-Leu-Leu-Val-Tyr-AMC and the enzyme used was purified 20S proteasome isolated from erythrocytes (Enzo Life Sciences). […] The plate was incubated at 37 °C in the dark for 2 h. […] Lactacystin was used as positive control.

[3] = target: T2, LOX from glycine max (soybean) (Glycine max, UniProt P08170); assay: Lipoxygenase glycine max (soybean) assay; assay type: biochemical; details: dose-response assay; read-out: IC50 for LOX inhibition
T2 construct: purchased Sigma-Aldrich
T2 sequence (P08170 1-839): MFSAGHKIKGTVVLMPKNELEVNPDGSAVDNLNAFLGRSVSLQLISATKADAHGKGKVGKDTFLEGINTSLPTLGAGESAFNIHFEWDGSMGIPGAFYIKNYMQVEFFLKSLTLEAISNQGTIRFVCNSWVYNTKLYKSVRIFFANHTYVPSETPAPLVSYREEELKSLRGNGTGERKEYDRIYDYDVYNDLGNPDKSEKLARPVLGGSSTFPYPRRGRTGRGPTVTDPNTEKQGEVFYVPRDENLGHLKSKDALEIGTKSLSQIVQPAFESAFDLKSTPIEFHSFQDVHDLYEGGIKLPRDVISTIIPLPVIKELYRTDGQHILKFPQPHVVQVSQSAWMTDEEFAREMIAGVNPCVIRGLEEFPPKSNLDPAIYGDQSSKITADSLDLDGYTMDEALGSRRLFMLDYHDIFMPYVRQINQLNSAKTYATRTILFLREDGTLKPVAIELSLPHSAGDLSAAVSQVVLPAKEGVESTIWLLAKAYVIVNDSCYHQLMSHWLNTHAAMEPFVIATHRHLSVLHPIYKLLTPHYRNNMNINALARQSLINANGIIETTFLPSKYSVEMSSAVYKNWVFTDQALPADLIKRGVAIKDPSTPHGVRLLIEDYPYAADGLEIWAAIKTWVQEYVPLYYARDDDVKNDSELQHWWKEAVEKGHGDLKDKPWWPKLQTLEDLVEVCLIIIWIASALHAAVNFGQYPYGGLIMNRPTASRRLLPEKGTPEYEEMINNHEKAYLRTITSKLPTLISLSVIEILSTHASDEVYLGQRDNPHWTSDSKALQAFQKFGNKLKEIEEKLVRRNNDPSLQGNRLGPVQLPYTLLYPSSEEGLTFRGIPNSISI
Protocol: The inhibitory effect on LOX was assessed in 96-well plates, using a modified version of a previously reported procedure from Pereira et al.. […] After 5 min pre-incubation at room temperature, the reaction was started by addition of linoleic acid substrate (20 µL of a 4.18 mM solution in ethanol). The reaction was monitored at 234 nm using a multiplate reader (Multiskan Thermo Fisher Scientific Oy, Vantaa, Finland), for 3 min.

RAW 264.7 cells = test system: RAW 264.7 cells; set-up: method as in PMID 30987203; details: up to 100 µM, 24 h, MTT; cited from earlier work
[4] = test system: LPS-induced •NO production in RAW 264.7 cells; details: cited from earlier work

26S proteasome activity versus control ([1]; 100 µM): 8.1%
IC50 ([1]; dose-response assay): 18.6 µM
remaining activity at 100 µM ([2]; 100 µM, read-out: 20S proteasome enzyme activity remaining): 11%
IC50 ([2]; dose-response assay): 30.6 µM
IC50 [3]: 54.1 µM
SMILES: COc1ccc2cc(C(C)C(=O)NC(Cc3ccc(O)cc3)C(=O)NC(=Cc3ccccc3)C(=O)O)ccc2c1 [Compound 1, Npx-L-Tyr-Z-ΔPhe-OH]
cytotoxic effect on RAW 264.7 viability (RAW 264.7 cells): did not show any statistically significant cytotoxic effects
inhibition of LPS-induced production of •NO ([4]; preliminary study): modest ability to inhibit
IC50 ([4]; previously reported, read-out: IC50 (LPS-dependent •NO production)): 79.3 µM
